Measured values published in patent publication US10239890B2, “Broad spectrum beta-lactamase inhibitors” (Gladius Pharmaceuticals Corporation, priority 2007, dated 2019).

Assays:
[1] = molecular target: T1, beta-lactamase from Enterobacter cloacae (Enterobacter cloacae, UniProt P05364); assay: Time dependent inhibition of beta-lactamase, with dialysis to test for return of activity; type: biochemical; conditions: 10 mL 0.1 units/mL beta-lactamase with and without 500 microM inhibitor, dialysed against 1 L 0.1 M sodium phosphate buffer (pH 7.0) with one exchange
T1 construct: purchased Sigma-Aldrich, St. Louis, Mo
T1 sequence (P05364 21-381): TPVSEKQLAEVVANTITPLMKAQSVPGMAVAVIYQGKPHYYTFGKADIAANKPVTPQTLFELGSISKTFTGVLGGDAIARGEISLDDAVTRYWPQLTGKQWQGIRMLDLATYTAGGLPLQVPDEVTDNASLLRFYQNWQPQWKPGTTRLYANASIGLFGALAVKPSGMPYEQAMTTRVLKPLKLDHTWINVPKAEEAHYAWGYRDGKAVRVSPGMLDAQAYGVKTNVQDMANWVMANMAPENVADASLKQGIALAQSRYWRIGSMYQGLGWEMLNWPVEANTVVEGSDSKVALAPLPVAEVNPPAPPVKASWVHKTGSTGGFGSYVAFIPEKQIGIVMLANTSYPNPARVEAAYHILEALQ

[2] = molecular target: T1, beta-lactamase from Enterobacter cloacae; assay: Assay (I) for beta-lactamase activity (Cefesone hydrolysis, absorbance at 486 nm), product inhibition; type: biochemical; conditions: Cefesone substrate
Protocol: A chromogenic cephalosporin, Cefesone, is synthesized and isolated as described by Sutton et al. and used to monitor p-lactamase activity. A typical assay monitors the hydrolysis of Cefesone via the formation of a species which absorbs at 486 nm (molar absorptivity constant 16,000). Absorption is monitored as a function of time in 0.1 M, pH 7.0 sodium phosphate, 0.2 mM Cefesone and 4 volume percent DMSO cosolvent at 30° C. using a Beckman DU-40 spectrophotometer having a circulating water bath attached to the cuvette holder. The assay is initiated by addition and mixing of an appropriate amount of beta-lactamase.
The beta-lactamase assay using enzyme fro Enterobacter cloacae (Sigma-Aldrich, St. Louis, Mo.) was carried out as in Example 1 (assay I) above with compound 2. After the initial rate was determined the reaction was allowed to continue for two hours. Theoretical maximal absorbance at 486 nm is approximately 1.6 while the observed final absorbance was consistently 0.26.
where E is enzyme, S is substrate, P is product, ES is the enzyme-substrate complex, EP is the enzyme product complex, and k1, k−1, k2, and k−2 are rate constants and kcat is the catalytic rate constant. In the case of product inhibition k−2 is large with respect to k2, so as enzyme product accumulates, more enzyme is tied up in the enzyme-product complex and is unavailable for catalysis.

Row | SMILES | return of beta-lactamase activity after dialysis [1] | observed final absorbance at 486 nm ([2]; reaction continued for two hours after the initial rate, theoretical maximal absorbance approximately 1.6) | type of inhibition inferred from final absorbance ([2]; reaction continued for two hours)
1 | O=C(Cc1ccccc1)NC1C(=O)N2C(C(=O)O)=C(/C=C/c3ccc(CBr)cc3)CSC12 (stereo not shown) [compound 4, 3-(1-bromomethyl-4-vinylbenzene)-7-(2-phenylacetamido)-3-Cephem-4-carboxylic acid] | no return of activity |  | 
2 | O=C(Cc1ccccc1)NC1C(=O)N2C(C(=O)O)=C(/C=C/C3CC3)CSC12 (stereo not shown) [compound 2, 3-vinylcyclopropane-7-(2-phenylacetamido)-3-Cephem-4-carboxylic acid] | no return of activity | 0.26 | consistent with product inhibition
